How the values were obtained:
[1] = molecular target: 3',5'-cyclic-AMP phosphodiesterase 4B (Homo sapiens, UniProt Q07343); assay: Inhibition of PDE4B by luciferase-coupled assay
[2] = molecular target: 3',5'-cyclic-AMP phosphodiesterase 4D (Homo sapiens, UniProt Q08499); assay: Inhibition of PDE4D by luciferase-coupled assay
[3] = Inhibition of bovine PDE3 by scintillation proximity assay; parameters: species or system Bos taurus
[4] = molecular target: cGMP-specific 3',5'-cyclic phosphodiesterase (Homo sapiens, UniProt O76074); assay: Inhibition of human PDE5 by scintillation proximity assay
[5] = Selectivity for PDE4B over PDE4D

Chain of 3',5'-cyclic-AMP phosphodiesterase 4D (Q08499 whole entry): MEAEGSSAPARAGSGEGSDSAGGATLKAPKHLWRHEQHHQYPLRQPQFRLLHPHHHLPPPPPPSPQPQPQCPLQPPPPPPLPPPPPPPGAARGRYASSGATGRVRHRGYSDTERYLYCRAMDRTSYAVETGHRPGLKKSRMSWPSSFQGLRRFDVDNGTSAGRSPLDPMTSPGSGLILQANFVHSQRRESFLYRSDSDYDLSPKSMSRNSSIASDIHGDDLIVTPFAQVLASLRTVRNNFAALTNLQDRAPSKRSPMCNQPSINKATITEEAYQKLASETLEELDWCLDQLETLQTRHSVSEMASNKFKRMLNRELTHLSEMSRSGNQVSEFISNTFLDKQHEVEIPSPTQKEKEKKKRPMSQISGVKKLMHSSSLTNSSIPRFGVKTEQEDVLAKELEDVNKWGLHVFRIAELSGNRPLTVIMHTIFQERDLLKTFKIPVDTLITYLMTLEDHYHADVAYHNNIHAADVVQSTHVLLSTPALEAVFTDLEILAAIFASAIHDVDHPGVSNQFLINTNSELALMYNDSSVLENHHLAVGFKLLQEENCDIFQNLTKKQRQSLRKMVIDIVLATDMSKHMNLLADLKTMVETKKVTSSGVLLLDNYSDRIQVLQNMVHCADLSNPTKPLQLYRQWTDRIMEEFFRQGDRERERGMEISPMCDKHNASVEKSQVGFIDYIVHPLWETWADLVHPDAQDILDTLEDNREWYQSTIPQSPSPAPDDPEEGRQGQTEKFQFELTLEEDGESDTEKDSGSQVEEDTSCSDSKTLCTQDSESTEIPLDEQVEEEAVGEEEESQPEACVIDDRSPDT
Chain of 3',5'-cyclic-AMP phosphodiesterase 4B (Q07343 whole entry): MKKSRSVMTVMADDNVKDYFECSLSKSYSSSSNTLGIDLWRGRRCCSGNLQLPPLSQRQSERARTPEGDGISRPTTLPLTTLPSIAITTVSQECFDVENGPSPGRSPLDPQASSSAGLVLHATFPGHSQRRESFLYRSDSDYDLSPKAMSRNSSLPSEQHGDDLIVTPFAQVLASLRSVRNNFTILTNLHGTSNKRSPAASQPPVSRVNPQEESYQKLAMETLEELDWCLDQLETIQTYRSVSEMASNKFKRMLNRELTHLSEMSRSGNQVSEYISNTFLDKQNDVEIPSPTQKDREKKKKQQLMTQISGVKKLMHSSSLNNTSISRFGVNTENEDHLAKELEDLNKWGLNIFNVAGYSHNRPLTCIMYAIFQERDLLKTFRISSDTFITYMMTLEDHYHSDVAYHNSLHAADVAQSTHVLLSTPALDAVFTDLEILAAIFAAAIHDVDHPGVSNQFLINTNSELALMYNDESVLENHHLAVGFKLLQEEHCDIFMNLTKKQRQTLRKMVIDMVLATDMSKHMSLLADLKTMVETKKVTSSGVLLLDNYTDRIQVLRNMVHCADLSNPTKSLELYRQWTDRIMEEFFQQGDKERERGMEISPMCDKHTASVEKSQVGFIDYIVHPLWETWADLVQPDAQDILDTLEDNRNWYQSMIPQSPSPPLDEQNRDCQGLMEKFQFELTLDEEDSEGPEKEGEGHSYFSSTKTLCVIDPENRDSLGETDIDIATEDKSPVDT

Row | SMILES | IC50 [1] | IC50 [2] | pIC50 [3] | IC50 [4] | Selectivity Index [5]
1 | NC(=O)c1c(NC(=O)c2ccccc2[N+](=O)[O-])sc2c1CCCC2 | 1.26 µM | 6.31 µM | – | – | –
2 | CC(C)(C)C1CCc2c(sc(NC(=O)c3c(F)cccc3F)c2C(N)=O)C1 (stereo unspecified) | 0.0794 µM | – | – | – | –
3 | Cc1cccc(C)c1C1CCCc2sc(NC(=O)c3ccccc3[N+](=O)[O-])c(C(N)=O)c21 (stereo unspecified) | 5.01 µM | 2.51 µM | – | – | –
4 | CC1CCc2c(sc(NC(=O)c3cccc([N+](=O)[O-])c3)c2C(N)=O)C1 (stereo unspecified) | 0.631 µM | > 2.51 µM | – | – | –
5 | CC(C)(C)C1CCc2c(sc(NC(=O)c3ccncc3)c2C(N)=O)C1 (stereo unspecified) | 0.2 µM | 0.316 µM | < 5 | > 10 µM | –
6 | CCC1CCc2c(sc(NC(=O)c3ccccc3[N+](=O)[O-])c2C(N)=O)C1 (stereo unspecified) | 0.01 µM | 0.126 µM | – | – | 10
7 | CC1CCc2c(sc(NC(=O)c3ccc([N+](=O)[O-])cc3)c2C(N)=O)C1 (stereo unspecified) | > 2.51 µM | > 2.51 µM | – | – | –
8 | CC1CCc2sc(NC(=O)c3ccccc3[N+](=O)[O-])c(C(N)=O)c2C1 (stereo unspecified) | 2 µM | 6.31 µM | – | – | –
9 | CC(C)(C)C1CCc2sc(NC(=O)c3ccccc3[N+](=O)[O-])c(C(N)=O)c2C1 (stereo unspecified) | 1.26 µM | 6.31 µM | – | – | –

Other lines, results leading:

Row | IC50 [1] | IC50 [2] | pIC50 [3] | IC50 [4] | Selectivity Index [5] | SMILES
10 | 5.01 µM | 31.6 µM | – | – | – | CC1CCCc2sc(NC(=O)c3ccccc3[N+](=O)[O-])c(C(N)=O)c21 (stereo unspecified)
11 | 0.398 µM | 1.58 µM | – | – | – | NC(=O)c1c(NC(=O)c2ccccc2[N+](=O)[O-])sc2c1CCC(c1ccccc1)C2 (stereo unspecified)
12 | 0.1 µM | 2.51 µM | – | – | – | CCCCCC1CCc2c(sc(NC(=O)c3ccccc3[N+](=O)[O-])c2C(N)=O)C1 (stereo unspecified)
13 | 0.0501 µM | 0.398 µM | – | – | – | CC1(C)CCc2c(sc(NC(=O)c3ccccc3[N+](=O)[O-])c2C(N)=O)C1
14 | 0.0251 µM | 0.126 µM | – | – | – | CC(C)(C)C1CCc2c(sc(NC(=O)c3ccccc3[N+](=O)[O-])c2C(N)=O)C1 (stereo unspecified)
15 | > 10 µM | – | – | – | – | CNC(=O)c1c(NC(=O)c2c(F)cccc2F)sc2c1CCC(C(C)(C)C)C2 (stereo unspecified)

— ChEMBL document CHEMBL1155252 (Bioorg Med Chem, 2009)
